This is an account of results in paper PMC5218480 (PLoS ONE, 2017).

Structures are written as SMILES.

This assay deals with MV-4-11 cells. Description: Gene expression microarray analysis (Affymetrix PrimeView) and GSEA. The note with it: ProbeSet 11739106_a_at; LIST B. Also on record: RFU PODN (11730768_x_at) / Fold change /veh PODN (11730768_x_at) / RFU LINC00158 (11744669_a_at) / Fold change /veh LINC00158 (11744669_a_at) / RFU DUSP10 (11751237_a_at) / Fold change /veh DUSP10 (11751237_a_at) / RFU ID3 (11757404_x_at) / Fold change /veh ID3 (11757404_x_at) / RFU PLEKHG5 (11737974_s_at) / Fold change /veh PLEKHG5 (11737974_s_at) / RFU LRRC4B (11730491_at) / Fold change /veh LRRC4B (11730491_at) / RFU GIMAP4 (11747438_a_at) / Fold change /veh GIMAP4 (11747438_a_at) / RFU KRT8 (11758183_x_at) / Fold change /veh KRT8 (11758183_x_at) / RFU CNN1 (11734310_a_at) / Fold change /veh CNN1 (11734310_a_at) / RFU VPS37D (11726825_at) / Fold change /veh VPS37D (11726825_at) / RFU C10orf10 (11716522_x_at) / Fold change /veh C10orf10 (11716522_x_at) / RFU KIR2DL2 /// KIR2DL4 /// KIR2DL5A /// KIR2DL5B /// KIR2DS1 /// KIR2DS2 /// KIR2DS3 /// KIR2DS4 /// KIR3DL3 /// KIR3DL3 /// KIR3DS1 (11738374_at) / Fold change /veh KIR2DL2 /// KIR2DL4 /// KIR2DL5A /// KIR2DL5B /// KIR2DS1 /// KIR2DS2 /// KIR2DS3 /// KIR2DS4 /// KIR3DL3 /// KIR3DL3 /// KIR3DS1 (11738374_at) / RFU C1QL1 (11718748_at) / Fold change /veh C1QL1 (11718748_at) / RFU TMPRSS4 (11747572_a_at) / Fold change /veh TMPRSS4 (11747572_a_at) / RFU HAMP (11756126_x_at) / Fold change /veh HAMP (11756126_x_at) / RFU RNFT2 (11725882_a_at) / Fold change /veh RNFT2 (11725882_a_at) / RFU NR4A2 (11747474_a_at) / Fold change /veh NR4A2 (11747474_a_at) / RFU ABCC12 (11746883_a_at) / Fold change /veh ABCC12 (11746883_a_at) / RFU TMEM136 (11760407_x_at) / Fold change /veh TMEM136 (11760407_x_at) / RFU CLDN22 /// WWC2 (11732394_at) / Fold change /veh CLDN22 /// WWC2 (11732394_at) / RFU HLA-DPB1 (11760878_x_at) / Fold change /veh HLA-DPB1 (11760878_x_at) / RFU SPINT1 (11716480_a_at) / Fold change /veh SPINT1 (11716480_a_at) / RFU GAP43 (11754022_s_at) / Fold change /veh GAP43 (11754022_s_at) / RFU A4GNT (11735810_at) / Fold change /veh A4GNT (11735810_at) / RFU PRB3 (11715151_x_at) / Fold change /veh PRB3 (11715151_x_at) / RFU TUBB4B (11761932_at) / Fold change /veh TUBB4B (11761932_at) / RFU CAPN14 (11732068_a_at) / Fold change /veh CAPN14 (11732068_a_at) / RFU TMCC2 (11721928_a_at) / Fold change /veh TMCC2 (11721928_a_at) / RFU IRGQ (11745062_a_at) / Fold change /veh IRGQ (11745062_a_at) / RFU FAM174B (11720279_a_at) / Fold change /veh FAM174B (11720279_a_at) / RFU TMPRSS4 (11748680_a_at) / Fold change /veh TMPRSS4 (11748680_a_at) / RFU FAM212B (11763350_a_at) / Fold change /veh FAM212B (11763350_a_at) / RFU PLEKHG5 (11743358_a_at) / Fold change /veh PLEKHG5 (11743358_a_at) / RFU ZSCAN30 (11745921_a_at) / Fold change /veh ZSCAN30 (11745921_a_at) / RFU CMKLR1 (11741424_a_at) / Fold change /veh CMKLR1 (11741424_a_at) / RFU LOC101060620 /// MAPK8IP1 (11723275_at) / Fold change /veh LOC101060620 /// MAPK8IP1 (11723275_at) / RFU SPTSSB (11747773_x_at) / Fold change /veh SPTSSB (11747773_x_at) / RFU PRSS12 (11739890_at) / Fold change /veh PRSS12 (11739890_at) / RFU BIN1 (11741810_x_at) / Fold change /veh BIN1 (11741810_x_at) / RFU WNT11 (11732464_a_at) / Fold change /veh WNT11 (11732464_a_at) / RFU C10orf10 (11716521_a_at) / Fold change /veh C10orf10 (11716521_a_at) / RFU C5orf56 (11738089_at) / Fold change /veh C5orf56 (11738089_at) / RFU CYB561 (11721691_x_at) / Fold change /veh CYB561 (11721691_x_at) / RFU ANKRD19P (11752326_a_at) / Fold change /veh ANKRD19P (11752326_a_at) / RFU OR2T12 /// OR2T33 /// OR2T8 (11738714_s_at) / Fold change /veh OR2T12 /// OR2T33 /// OR2T8 (11738714_s_at) / RFU VCAN (11748164_a_at) / Fold change /veh VCAN (11748164_a_at) / RFU JSRP1 (11732532_at) / Fold change /veh JSRP1 (11732532_at) / RFU KRTAP10-11 (11738290_x_at) / Fold change /veh KRTAP10-11 (11738290_x_at) / RFU MYO3A (11730013_a_at) / Fold change /veh MYO3A (11730013_a_at) / RFU EBF3 (11725865_a_at) / Fold change /veh EBF3 (11725865_a_at) / RFU CAMK2N1 (11719241_x_at) / Fold change /veh CAMK2N1 (11719241_x_at) / RFU C5orf56 (11738088_a_at) / Fold change /veh C5orf56 (11738088_a_at) / RFU OLFML3 (11715873_a_at) / Fold change /veh OLFML3 (11715873_a_at) / RFU LOC100653217 /// NTM (11731650_a_at) / Fold change /veh LOC100653217 /// NTM (11731650_a_at) / RFU MAPK11 (11762145_a_at) / Fold change /veh MAPK11 (11762145_a_at) / RFU FIZ1 (11724087_x_at) / Fold change /veh FIZ1 (11724087_x_at) / RFU OASL (11726364_x_at) / Fold change /veh OASL (11726364_x_at) / RFU SOX15 (11748057_x_at) / Fold change /veh SOX15 (11748057_x_at) / RFU CD79A (11719716_a_at) / Fold change /veh CD79A (11719716_a_at) / RFU HIST1H1D (11736915_at) / Fold change /veh HIST1H1D (11736915_at) / RFU CASKIN2 (11723855_a_at) / Fold change /veh CASKIN2 (11723855_a_at) / RFU LOC730098 (11760151_x_at) / Fold change /veh LOC730098 (11760151_x_at) / RFU OR4N2 (11742367_at) / Fold change /veh OR4N2 (11742367_at) / RFU PRRT2 (11749266_a_at) / Fold change /veh PRRT2 (11749266_a_at) / RFU SNX32 (11753110_a_at) / Fold change /veh SNX32 (11753110_a_at) / RFU CDHR5 (11726645_a_at) / Fold change /veh CDHR5 (11726645_a_at) / RFU RCAN1 (11760418_a_at) / Fold change /veh RCAN1 (11760418_a_at) / RFU FAM167A (11723789_a_at) / Fold change /veh FAM167A (11723789_a_at) / RFU FAM26E (11764081_at) / Fold change /veh FAM26E (11764081_at) / RFU ISYNA1 (11749810_s_at) / Fold change /veh ISYNA1 (11749810_s_at) / RFU ACY1 (11761880_at) / Fold change /veh ACY1 (11761880_at) / RFU 11764098_at / Fold change /veh 11764098_at / RFU SAMD14 (11745864_x_at) / Fold change /veh SAMD14 (11745864_x_at) / RFU NPB (11741838_a_at) / Fold change /veh NPB (11741838_a_at) / RFU TMPRSS6 (11731388_a_at) / Fold change /veh TMPRSS6 (11731388_a_at) / RFU KRTAP10-2 (11738614_at) / Fold change /veh KRTAP10-2 (11738614_at) / RFU ARHGAP8 /// PRR5-ARHGAP8 (11727945_x_at) / Fold change /veh ARHGAP8 /// PRR5-ARHGAP8 (11727945_x_at) / RFU KRTAP5-7 /// NADSYN1 (11734609_at) / Fold change /veh KRTAP5-7 /// NADSYN1 (11734609_at) / RFU RASL12 (11751679_a_at) / Fold change /veh RASL12 (11751679_a_at) / RFU CDKN2B (11736163_a_at) / Fold change /veh CDKN2B (11736163_a_at) / RFU PRF1 (11729649_at) / Fold change /veh PRF1 (11729649_at) / RFU, ZNF638 /// ZNF638-IT1 / Fold change vs veh, ZNF638 /// ZNF638-IT1 / RFU, PANK3 / Fold change vs veh, PANK3 / RFU, SH3YL1 / Fold change vs veh, SH3YL1 / RFU, ZEB2 / Fold change vs veh, ZEB2 / RFU, NRIP1 / Fold change vs veh, NRIP1 / RFU, PTTG1IP / Fold change vs veh, PTTG1IP / RFU, CAPN2 / Fold change vs veh, CAPN2 / RFU, MED14 / Fold change vs veh, MED14 / RFU, SNORA58 / Fold change vs veh, SNORA58 / RFU, C1orf63 / Fold change vs veh, C1orf63 / RFU, LRRFIP1 / Fold change vs veh, LRRFIP1 / RFU, NDUFAF7 / Fold change vs veh, NDUFAF7 / RFU, SLC12A2 / Fold change vs veh, SLC12A2 / RFU, IBTK / Fold change vs veh, IBTK / RFU, ESF1 / Fold change vs veh, ESF1 / Fold change vs veh, TMEM50B / RFU, TAOK1 / Fold change vs veh, TAOK1 / RFU, ACBD3 / Fold change vs veh, ACBD3 / RFU, TMA16 / Fold change vs veh, TMA16 / RFU, RWDD3 / Fold change vs veh, RWDD3 / RFU, BCAT1 / Fold change vs veh, BCAT1 / RFU, EDEM3 / Fold change vs veh, EDEM3 / RFU, TMEM33 / Fold change vs veh, TMEM33 / RFU, WDR75 / Fold change vs veh, WDR75 / RFU, AHCTF1 / Fold change vs veh, AHCTF1 / RFU, TFRC / Fold change vs veh, TFRC / RFU, ZDHHC17 / Fold change vs veh, ZDHHC17 / RFU, NOM1 / Fold change vs veh, NOM1 / RFU, ARL8B / Fold change vs veh, ARL8B / RFU, ZBTB11 / Fold change vs veh, ZBTB11 / RFU, TAMM41 / Fold change vs veh, TAMM41 / RFU, KIAA1704 /// LOC100996395 / Fold change vs veh, KIAA1704 /// LOC100996395 / RFU, ING1 / Fold change vs veh, ING1 / RFU, TRMT61B / Fold change vs veh, TRMT61B / RFU, FUBP3 / Fold change vs veh, FUBP3 / RFU, TP53 / Fold change vs veh, TP53 / RFU, TNKS2 / Fold change vs veh, TNKS2 / RFU, ZFP14 / Fold change vs veh, ZFP14 / RFU, ACTR2 / Fold change vs veh, ACTR2 / RFU, PPP3R1 / Fold change vs veh, PPP3R1 / RFU, PIK3R1 / Fold change vs veh, PIK3R1 / RFU, HNRNPA1 / Fold change vs veh, HNRNPA1 / RFU, RNF170 / Fold change vs veh, RNF170 / RFU, ZNF28 / Fold change vs veh, ZNF28 / RFU, RNGTT / Fold change vs veh, RNGTT / RFU, OGT / Fold change vs veh, OGT / RFU, BRD1 / Fold change vs veh, BRD1 / RFU, MARS / Fold change vs veh, MARS / RFU, ZNF655 / Fold change vs veh, ZNF655 / RFU, FAHD1 / Fold change vs veh, FAHD1 / RFU, BDP1 / Fold change vs veh, BDP1 / RFU, LRRCC1 / Fold change vs veh, LRRCC1 / RFU, ARID1A / Fold change vs veh, ARID1A / RFU, ZNF146 / Fold change vs veh, ZNF146 / RFU, ZNF330 / Fold change vs veh, ZNF330 / RFU, GPN3 / Fold change vs veh, GPN3 / RFU, C9orf123 / Fold change vs veh, C9orf123 / RFU, N4BP2L2 / Fold change vs veh, N4BP2L2 / RFU, ARFIP1 / Fold change vs veh, ARFIP1 / RFU, FAM179B / Fold change vs veh, FAM179B / RFU, BCL10 / Fold change vs veh, BCL10 / RFU, UHRF1BP1L / Fold change vs veh, UHRF1BP1L / RFU, BET1 / Fold change vs veh, BET1 / RFU, CNOT2 / Fold change vs veh, CNOT2 / RFU, ZNF268 / Fold change vs veh, ZNF268 / Fold change vs veh, ZNF507 / RFU, DGCR2 / Fold change vs veh, DGCR2 / RFU, WDSUB1 / Fold change vs veh, WDSUB1 / Fold change vs veh, HSP90B1 /// MIR3652 / RFU, ADSS / Fold change vs veh, ADSS / RFU, GK / Fold change vs veh, GK / RFU, ZNF148 / Fold change vs veh, ZNF148 / RFU, TAF9 / Fold change vs veh, TAF9 / RFU, SLC1A5 / Fold change vs veh, SLC1A5 / RFU, SLMO2 / Fold change vs veh, SLMO2 / RFU, ABCC4 / Fold change vs veh, ABCC4 / RFU, LOC101060439 /// RAP1B / Fold change vs veh, LOC101060439 /// RAP1B / RFU, RFX7 / Fold change vs veh, RFX7 / RFU, GTPBP10 / Fold change vs veh, GTPBP10 / RFU, CNEP1R1 / Fold change vs veh, CNEP1R1 / RFU, BIVM-ERCC5 /// ERCC5 / Fold change vs veh, BIVM-ERCC5 /// ERCC5 / RFU, ILF3 / Fold change vs veh, ILF3 / RFU 11762660_at / Fold change /veh 11762660_at / RFU VCAN (11757783_s_at) / Fold change /veh VCAN (11757783_s_at) / RFU DDX43 (11728927_at) / Fold change /veh DDX43 (11728927_at) / RFU KRT8 (11758188_x_at) / Fold change /veh KRT8 (11758188_x_at) / RFU NKD1 (11759106_at) / Fold change /veh NKD1 (11759106_at) / RFU SRD5A1 (11742802_a_at) / Fold change /veh SRD5A1 (11742802_a_at) / RFU TPSAB1 /// TPSB2 (11721975_s_at) / Fold change /veh TPSAB1 /// TPSB2 (11721975_s_at) / RFU GSTM3 (11746129_a_at) / Fold change /veh GSTM3 (11746129_a_at) / RFU IL23R (11737362_x_at) / Fold change /veh IL23R (11737362_x_at) / RFU TMEM51 (11727254_a_at) / Fold change /veh TMEM51 (11727254_a_at) / RFU PIWIL2 (11732686_x_at) / Fold change /veh PIWIL2 (11732686_x_at) / RFU ORM1 (11744905_x_at) / Fold change /veh ORM1 (11744905_x_at) / RFU CCDC152 (11743942_at) / Fold change /veh CCDC152 (11743942_at) / RFU ECM1 (11717891_a_at) / Fold change /veh ECM1 (11717891_a_at) / RFU IL23R (11748794_a_at) / Fold change /veh IL23R (11748794_a_at) / RFU TNFAIP8L3 (11732012_x_at) / Fold change /veh TNFAIP8L3 (11732012_x_at) / RFU MBOAT4 (11741988_at) / Fold change /veh MBOAT4 (11741988_at) / RFU 11764193_at / Fold change /veh 11764193_at / RFU TMEM53 (11763286_at) / Fold change /veh TMEM53 (11763286_at) / RFU MAGEB2 (11727129_at) / Fold change /veh MAGEB2 (11727129_at) / RFU TMEM200A (11744735_a_at) / Fold change /veh TMEM200A (11744735_a_at) / RFU CCDC152 (11751479_a_at) / Fold change /veh CCDC152 (11751479_a_at) / RFU FAM211A (11726209_a_at) / Fold change /veh FAM211A (11726209_a_at) / RFU RGS16 (11746705_a_at) / Fold change /veh RGS16 (11746705_a_at) / RFU VCAN (11755009_s_at) / Fold change /veh VCAN (11755009_s_at) / RFU RHOB (11743442_s_at) / Fold change /veh RHOB (11743442_s_at) / RFU RGS16 (11720943_a_at) / Fold change /veh RGS16 (11720943_a_at) / RFU RGS16 (11720944_at) / Fold change /veh RGS16 (11720944_at) / RFU, VPS4B / Fold change vs veh, VPS4B / RFU, CREB1 / Fold change vs veh, CREB1 / RFU, DNAJC13 / Fold change vs veh, DNAJC13 / RFU, GNAQ / Fold change vs veh, GNAQ / RFU, CDK5R1 / Fold change vs veh, CDK5R1 / RFU, ZRANB3 / Fold change vs veh, ZRANB3 / RFU, CUL4A / Fold change vs veh, CUL4A / RFU, CCNY / Fold change vs veh, CCNY / RFU, UFL1 / Fold change vs veh, UFL1 / RFU, COG3 / Fold change vs veh, COG3 / RFU, DIAPH2 / Fold change vs veh, DIAPH2 / RFU, SKA2 / Fold change vs veh, SKA2 / RFU, AFF3 / Fold change vs veh, AFF3 / RFU, LMF1 / Fold change vs veh, LMF1 / RFU, IPO11 / Fold change vs veh, IPO11 / RFU, DFFB / Fold change vs veh, DFFB / RFU, FOXP1 / Fold change vs veh, FOXP1 / RFU, CARD8 / Fold change vs veh, CARD8 / RFU, STRN3 / Fold change vs veh, STRN3 / RFU, ADK / Fold change vs veh, ADK / RFU, RASSF2 / Fold change vs veh, RASSF2 / RFU, WIPF1 / Fold change vs veh, WIPF1 / RFU, LARP1B / Fold change vs veh, LARP1B / RFU, RASA1 / Fold change vs veh, RASA1 / RFU, RB1 / Fold change vs veh, RB1 / RFU, PPFIA1 / Fold change vs veh, PPFIA1 / RFU, MAT2A / Fold change vs veh, MAT2A / RFU, CCT5 / Fold change vs veh, CCT5 / RFU, WDR92 / Fold change vs veh, WDR92 / RFU, CUX1 / Fold change vs veh, CUX1 / RFU, TTC7A / Fold change vs veh, TTC7A / RFU, TMEM135 / Fold change vs veh, TMEM135 / RFU, DEPTOR / Fold change vs veh, DEPTOR / RFU, CPM / Fold change vs veh, CPM / RFU, DNAJB6 / Fold change vs veh, DNAJB6 / RFU, CACNA2D3 / Fold change vs veh, CACNA2D3 / RFU, DTX4 / Fold change vs veh, DTX4 / RFU, TFCP2 / Fold change vs veh, TFCP2 / RFU, GMCL1 /// GMCL1P1 / Fold change vs veh, GMCL1 /// GMCL1P1 / RFU, AEBP2 / Fold change vs veh, AEBP2 / RFU, SNHG1 /// SNORD22 /// SNORD25 /// SNORD26 /// SNORD27 /// SNORD28 /// SNORD29 /// SNORD31 / Fold change vs veh, SNHG1 /// SNORD22 /// SNORD25 /// SNORD26 /// SNORD27 /// SNORD28 /// SNORD29 /// SNORD31 / Fold change (Aza/veh), C12orf56 (ProbeSet 11735607_a_at) / Fold change (ACY-1035/veh), C12orf56 (ProbeSet 11735607_a_at) / Fold change (Aza/veh), FGFR1OP (ProbeSet 11751329_s_at) / Fold change (ACY-1035/veh), FGFR1OP (ProbeSet 11751329_s_at) / Fold change (Aza/veh), VPS36 (ProbeSet 11739960_a_at) / Fold change (ACY-1035/veh), VPS36 (ProbeSet 11739960_a_at) / RFU SYPL1 (11715823_x_at) / Fold change /veh SYPL1 (11715823_x_at) / RFU IGFBP7 (11715501_s_at) / Fold change /veh IGFBP7 (11715501_s_at) / RFU REEP3 (11722064_at) / Fold change /veh REEP3 (11722064_at) / RFU IGLL1 (11728026_x_at) / Fold change /veh IGLL1 (11728026_x_at): dose or concentration left out as unconfirmed. Type of assay: cell-based, human.

As for `Nc1ncn([C@@H]2O[C@H](CO)[C@@H](O)[C@H]2O)c(=O)n1` [azacitidine], the “Fold change vs veh, TMEM33” value was determined as 0.88.
